From PMC5224518, “Hydrophobic mismatch demonstrated for membranolytic peptides, and their use as molecular rulers to measure bilayer thickness in native cells” (Scientific Reports, 2015)
Read-outs that look alike come from different tables or passages of the source. Ends that are not written are not given here.

What was measured:
[1] = system: Enterococcus faecalis (DSM 2570); assay type: cell-based
Protocol: (§1) Antimicrobial activity was measured by a standard MIC assay, carried out with Gram-positive Staphylococcus aureus (DSM 1104) and Enterococcus faecalis (DSM 2570) and with Gram-negative Escherichia coli (DSM 1103) and Pseudomonas aeruginosa (DSM 1117), as previously reported. Briefly, bacteria were grown in Müller-Hinton medium at 37°C overnight. Microtiter plates (96 wells of 100 μL) were filled with 50 μL of Müller-Hinton medium, and serial 2-fold dilutions of peptides were arranged in quadruple. The two final rows of each plate remained without peptide, so that the penultimate data point served as the positive control (no peptide), and the final one as the negative control (not inoculated). 50 μL of bacterial suspension (OD = 0.2) was added to the wells (except for the final row of each plate) to give a final concentration of 10^6 colony-forming units (CFU)/mL.

[2] = system: Escherichia coli (DSM 1103); assay type: cell-based
Protocol: as §1

[3] = system: Pseudomonas aeruginosa (DSM 1117); assay type: cell-based
Protocol: as §1

[4] = system: Staphylococcus aureus (DSM 1104); assay type: cell-based
Protocol: as §1

[5] = Vesicle leakage assay (ANTS/DPX fluorescence dequenching); assay type: biochemical; conditions: for percentage of leakage: P/L = 1:12.5, after 10 minutes, 100 μM lipid, 30°C, pH 7.5, relative to Triton X-100 = 100%
Protocol: For the leakage experiments, the buffer in which the vesicles were prepared contained the fluorophor ANTS (12.5 mM), the quencher DPX (45 mM), 50 mM NaCl, and 10 mM HEPES (pH 7.5). Liposomes were prepared by co-dissolving PC/PG 1:1 (mol/mol) mixtures of the lipids with different chain length in CHCl3/MeOH (3:1 v/v), together with 10^−2 mol% Rhod-PE by which the lipid loss during vesicle preparation (extrusion and gel filtration, see below) could be quantified. The peptide-to-lipid ratio (P/L) is given in mol/mol. The lipid mixture was dried under N2(g) and left to dry under vacuum overnight. The obtained thin film was then re-suspended in the buffer which contained the fluorophor and the quencher by vigorous vortexing, followed by 10 freeze-thaw cycles. Large unilamellar vesicles (LUV) were obtained by 21-fold extrusion (Avanti Mini Extruder; Avanti Polar Lipids, Alabaster, AL) of the liposomes through a Nuclepore polycarbonate membrane (pore size 100 nm, Whatman - GE Healthcare Europe, Freiburg, Germany) at a temperature 20°C above the lipid phase transition. Unencapsulated dye was removed by gel filtration using spin columns filled with Sephacryl 100-HR (Sigma-Aldrich, Taufkirchen, Germany), and equilibrated with an elution buffer (150 mM NaCl, 10 mM HEPES, pH 7.5) which balances the internal vesicle osmolarity.
Leakage of entrapped ANTS was monitored by fluorescence dequenching of ANTS[76]. Fluorescence measurements were performed in a thermostatted cuvette with constant stirring at 30°C in the same buffer as used for gel filtration on a FluoroMax2 spectrofluorimeter (HORIBA Jobin Yvon, Unterhaching, Germany) by setting the ANTS emission to 510 nm (5 nm slit) and its excitation to 355 nm (5 nm slit). The vesicles (100 μM lipid final concentration) of the desired composition were added to the cuvette containing the peptide at the P/L ratio to be tested (from 1 mM stock solutions in water). The level of 0% leakage corresponded to the fluorescence of the vesicles immediately after their addition, while 100% leakage was the fluorescence value obtained after addition of a 0.25 vol-% Triton X-100 after 10 min.

[6] = Circular dichroism, secondary structure deconvolution (CONTIN-LL); assay type: physicochemical; conditions: CD, P/L 1:50, 30 μM peptide, 30°C; for Helicity: DMPC/DMPG (3:1) small unilamellar vesicles, 10 mM phosphate buffer pH 7, minimum helical content; for Percentage of secondary structure element: α-helix: DMPC/DMPG (3:1) vesicles
Protocol: CD samples were prepared by co-solubilizing DMPC and DMPG (3:1 mol/mol) in chloroform/methanol 3:1 (v/v). After drying, the lipid film was dispersed in phosphate buffer (10 mM, pH 7) and homogenized by vortexing. Small unilamellar vesicles (SUVs) for CD samples were generated by sonication in a high-power ultrasonic bath with a beaker-shaped sonotrode (UTR 200, Hielscher, Germany). CD spectra were recorded on a J-815 spectropolarimeter (JASCO, Groß-Umstadt, Germany) between 260 and 185 nm at 0.1-nm intervals, using 1-mm quartz glass cells (Suprasil; Hellma, Müllheim, Germany) at 20°C, as reported previously. The peptides were measured at 20°C in 10 mM sodium phosphate buffer (pH 7.0) and at 30°C in lipid vesicles composed of DMPC/DMPG (3:1). Typical peptide concentrations of the final samples in phosphate buffer was 36–72 μM, and for the vesicle samples 30 μM with a peptide-to-lipid molar ratio (P/L) of 1:50. An averaged baseline of the pure solvent or lipid matrix, respectively, was subtracted. Finally, the spectra were converted to mean residue ellipticities (MRE) by using the weighed-in peptide amount and the volume of the sample for concentration determination. […] Although this ambiguity in peptide concentration leads most probably to an underestimation of the magnitude of the MRE values we attempted a quantitative deconvolution of CD data to estimate the relative contents of different secondary structure elements. If part of the weighted material was not peptide, this leads to an underestimating of the MRE, which also leads to an underestimation of the helical content. The values obtained are thus the minimum helical content of each peptide.
Secondary structure estimation from CD spectra was performed using the CONTIN-LL program, which is based on the ridge regression algorithm. The algorithm is provided by the DICHROWEB on-line server. The quality of the fit between experimental and back-calculated spectrum corresponding to the estimated secondary structure fractions was assessed from the normalized root mean square deviation (NRMSD), with a value <0.1 considered as a good fit[74].

[7] = DErPC/DErPG 1:1 vesicles (34.4/34.4 Å)
[8] = DErPC/POPG 1:1 vesicles (34.4/27.8 Å)
[9] = DMoPC/DOPG 1:1 vesicles (hydrophobic thickness 19.2/27.5 Å)
[10] = POPC/DErPG 1:1 vesicles (27.1/34.4 Å)
[11] = POPC/POPG 1:1 vesicles (27.1/27.8 Å)

Substance	MIC ([1]; DSM 2570, 20 h) [µM]	MIC ([2]; DSM 1103, 20 h) [µM]	MIC ([3]; DSM 1117, 20 h) [µM]	MIC ([4]; DSM 1104, 20 h) [µM]	further results
GMASKAGAIAGKIAKVALKAL-NH2 [PGLa, reference compound]	–	–	–	–	MIC ([1]; E. faecalis, same assay as Table 2, given in µM): >477 µM; MIC ([2]; E. coli, same assay as Table 2, given in µM): 15 µM; MIC ([3]; P. aeruginosa, same assay as Table 2, given in µM): 119 µM; MIC ([4]; S. aureus, same assay as Table 2, given in µM): 30 µM
KIAGKIAKIAGKIA-NH2 [KIA14]	>657	>164	>164	>164	–
KIAGKIAKIAGKIAK-NH2 [KIA15]	>595	>149	>149	>149	antimicrobial activity (in words) ([2]; E. coli DSM 1103, MIC assay): completely inactive; percentage of leakage [5, 7]: 0%; percentage of leakage [5, 8]: 3%; percentage of leakage [5, 9]: 3%; percentage of leakage [5, 10]: 2%; percentage of leakage [5, 11]: 2%; leakage ([5]; POPC/POPG vesicles, P/L = 1:50, time course over 600 s, Triton X-100 = 100%): < 2%; Helicity [6]: 69%; Percentage of secondary structure element: α-helix [6]: 68.7%
KIAGKIAKIAGKIAKIA-NH2 [KIA17]	>537	17	134	134	–
KIAGKIAKIAGKIAKIAGK-NH2 [KIA19]	>481	15	120	>120	–
KIAGKIAKIAGKIAKIAGKIA-NH2 [KIA21]	443	1.7	28	3.5	–
KIAGKIAKIAGKIAKIAGKIAK-NH2 [KIA22]	414	1.6	13	6.5	antimicrobial activity (in words) ([1]; E. faecalis DSM 2570, MIC assay): hardly any activity; antimicrobial activity (in words) ([3]; P. aeruginosa DSM 1117, MIC assay): somewhat active; percentage of leakage [5, 7]: 6%; percentage of leakage [5, 8]: 85%; percentage of leakage [5, 9]: 100%; percentage of leakage [5, 10]: 26%; percentage of leakage [5, 11]: 100%; kinetics (rate) of leakage ([5]; POPC/POPG vesicles, P/L = 1:50, time course over 600 s): slower kinetics; Helicity [6]: 68%; Percentage of secondary structure element: α-helix [6]: 67.7%
KIAGKIAKIAGKIAKIAGKIAKIA-NH2 [KIA24]	24	1.5	6.0	1.5	–
KIAGKIAKIAGKIAKIAGKIAKIAGK-NH2 [KIA26]	22	1.4	5.6	2.8	–
KIAGKIAKIAGKIAKIAGKIAKIAGKIA-NH2 [KIA28]	5.2	2.6	5.2	2.6	–
